Measured values: PubChem BioAssay (NCI)
Values joined by “and” are separate entries in the source; they are usually repeats but may differ in a detail not shown here. Equal values may be shown once.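 Cells were grown in 96-well plates and exposed to each compound for 48 hours at five concentrations; endpoints were interpolated linearly between bracketing concentrations, or set to the highest concentration if not reached. Here, GI50 denotes the concentration required for 50% inhibition of growth. TGI: concentration producing complete growth inhibition.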

Experiments:
Assay in all cases: DTP human tumour cell line panel, 48 h
SF-539 CNS = tested on: SF-539 CNS
SNB-19 CNS = tested on: SNB-19 CNS
M14 melanoma = tested on: M14 melanoma
NCI-H23 lung = tested on: NCI-H23 lung
HT29 colon = tested on: HT29 colon
CCRF-CEM leukemia = tested on: CCRF-CEM leukemia
SF-268 CNS = tested on: SF-268 CNS
NCI-H522 lung = tested on: NCI-H522 lung
UO-31 renal = tested on: UO-31 renal
DU-145 prostate = tested on: DU-145 prostate

| SMILES | GI50 (SF-539 CNS) | TGI (SF-539 CNS) | GI50 (SNB-19 CNS) | TGI (SNB-19 CNS) | GI50 (M14 melanoma) | TGI (M14 melanoma) | GI50 (NCI-H23 lung) | TGI (NCI-H23 lung) | GI50 (HT29 colon) | TGI (HT29 colon) | GI50 (CCRF-CEM leukemia) | TGI (CCRF-CEM leukemia) | GI50 (SF-268 CNS) | TGI (SF-268 CNS) | GI50 (NCI-H522 lung) | TGI (NCI-H522 lung) | GI50 (UO-31 renal) | TGI (UO-31 renal) | GI50 (DU-145 prostate) | TGI (DU-145 prostate) |
| --- | --- | --- | --- | --- | --- | --- | --- | --- | --- | --- | --- | --- | --- | --- | --- | --- | --- | --- | --- | --- |
| NC(=O)c1ccc2c(c1)-c1nc-2nc2[n-]c(nc3nc(nc4[n-]c(n1)c1ccc(C(N)=O)cc41)-c1ccc(C(N)=O)cc1-3)c1ccc(C(N)=O)cc21.[Co+2] | 12.7 µM | 33.5 µM | > 50 µM | > 50 µM | 26 µM | > 50 µM | > 50 µM | > 50 µM | > 50 µM | > 50 µM | 14.5 µM | > 50 µM | > 50 µM | > 50 µM | > 50 µM | > 50 µM |  |  |  |  |
| NC(N)=N/N=C/c1c(-c2ccsc2)nc2n1CCS2 | 14.4 µM | 30.3 µM | 26.9 µM | > 100 µM | 15.1 µM | 29.1 µM | 23.8 µM | 80 µM | 51 µM | > 100 µM | 19.5 µM | 54.6 µM | 18.4 µM | 82.2 µM | 39.3 µM | > 100 µM | 65.5 µM | > 100 µM |  |  |
| CC(C)(CN1C(=O)C(Cl)=C(Cl)C1=O)CN1C(=O)C(Cl)=C(Cl)C1=O |  | 38.8 µM |  | 55 µM |  | 38.2 µM |  | 21 µM |  | 42 µM |  |  |  | 41.5 µM |  | 4.91 µM |  | 47.2 µM |  |  |
| O=C(O/N=C1\CCCC\C1=C/c1ccccc1)c1ccc([N+](=O)[O-])cc1 |  | > 100 µM |  |  |  | > 100 µM |  | > 100 µM |  | > 100 µM |  | > 100 µM |  | > 100 µM |  | > 100 µM |  | > 100 µM |  |  |
| C[C@H]1CC[P+](Cc2ccccc2)(c2ccccc2)C1 (stereo partly drawn) |  | > 100 µM |  | > 100 µM |  | > 100 µM |  | > 100 µM |  | > 100 µM |  | > 100 µM |  |  |  | > 100 µM |  | > 100 µM |  |  |
| O=S1(=O)N2CN3CN(C2)CN1C3 |  |  |  | 856 µM |  | 355 µM |  | 44.3 µM |  | 90.6 µM |  | > 31.6 µM and 110 µM | 31.8 µM | > 87.5 µM and 133 µM |  | 412 µM |  | 410 µM |  |  |
| CCOC(=O)CSc1cc(Cl)c(C)cc1S(=O)(=O)/N=C(/N=C/c1ccc([N+](=O)[O-])s1)NNC |  |  | 22.8 µM | 80.1 µM | 23.1 µM | 56.8 µM | 14.5 µM | 37.2 µM | 15 µM | 28.2 µM | 30.3 µM | > 100 µM | 29.8 µM | > 100 µM | 30.2 µM | 79.7 µM | 36.6 µM | > 100 µM | 7.45 µM | 41.2 µM |
| O=C(c1ccc(O)cc1O)C1C(c2ccc(O)cc2)OC(c2ccc(O)cc2)C1C(=O)c1ccc(O)cc1O (stereo not drawn) |  | 47.1 µM |  | 45.2 µM |  | 34.5 µM |  | 74.2 µM |  | > 100 µM |  |  |  | 42.5 µM |  | 34.3 µM |  | 76.9 µM |  |  |
| CSC1=NC(=Nc2c(C)cccc2C)C2(CCC(C(C)(C)C)CC2)N1c1ccc(Cl)cc1 (stereo not drawn) | 71.7 µM | > 100 µM | > 100 µM | > 100 µM | 68.2 µM | > 100 µM | 24.7 µM | > 100 µM | 38 µM | > 100 µM |  |  | 32.5 µM | > 100 µM |  |  | 25.2 µM | > 100 µM | > 100 µM | > 100 µM |
| CCCNC(=O)Nc1c([N+](=O)[O-])cc(C(F)(F)F)cc1[N+](=O)[O-] |  | > 100 µM |  | > 100 µM |  | > 100 µM |  | > 100 µM |  | > 100 µM |  | > 100 µM |  | > 100 µM |  | 97.5 µM |  | > 100 µM |  |  |
| Cc1ccccc1N=Nc1c(O)ccc2ccccc12 |  |  |  | > 100 µM |  | > 100 µM |  | > 100 µM |  | > 100 µM |  | > 100 µM |  | > 100 µM |  | > 100 µM |  | > 100 µM |  | > 100 µM |
| Nc1ccc2n[se]nc2c1 |  | > 100 µM |  | > 100 µM |  | > 100 µM |  | > 100 µM |  | > 100 µM |  | > 100 µM |  | > 100 µM |  |  |  | > 100 µM |  |  |
| Nc1nnc2c(-c3ccccc3)[nH]nc2n1 |  | > 100 µM |  | > 100 µM |  | > 100 µM |  | > 100 µM |  | > 100 µM |  | > 100 µM |  | 58.7 µM |  | > 100 µM |  | > 100 µM |  |  |
| Cc1ccc(NC(=O)CCc2nc(=S)[nH][nH]2)cc1 |  | > 100 µM |  | > 100 µM |  | > 100 µM |  | > 100 µM |  | > 100 µM |  | > 100 µM |  | > 100 µM |  | > 100 µM |  | > 100 µM |  |  |
| CC1(C)CCC(Sc2ccccc2)O1 (stereo not drawn) |  | > 100 µM |  | > 100 µM |  | > 100 µM |  | > 100 µM |  |  |  | > 100 µM |  | > 100 µM |  |  |  | > 100 µM |  |  |
| CC(C)(C)c1cc(CCC(=O)Nc2ccc(Cl)cc2)[nH]c(=S)n1 |  | > 100 µM |  | > 100 µM |  | > 100 µM |  | > 100 µM |  | > 100 µM |  | > 100 µM |  | > 100 µM |  | > 100 µM |  | > 100 µM |  |  |
| COC(=O)C(=O)Cc1nc2ccccc2s1 |  | > 100 µM |  | > 100 µM |  | > 100 µM |  | > 100 µM |  | > 100 µM |  | > 100 µM |  | > 100 µM |  | > 100 µM |  | > 100 µM |  |  |
| CCCCC1=CSC(c2ccccc2)=C(c2ccccc2)S1 |  | > 100 µM |  | > 100 µM |  | > 100 µM |  | > 100 µM |  | > 100 µM |  | > 100 µM |  |  |  |  |  | > 100 µM |  |  |
| COC1=C(N)C(=O)c2nc(-c3nc(C(=O)O)c(C)c(-c4ccc(OC)c(OC)c4O)c3N)ccc2C1=O |  |  |  | 0.00354 µM and 0.0228 µM and < 0.011 µM |  |  |  |  |  | 0.0337 µM and 0.0342 µM and 0.0663 µM | 0.0206 µM and 0.00386 µM | 0.0398 µM and 0.0286 µM | 0.00186 µM and 0.000781 µM and < 0.01 µM | 0.00904 µM and 0.0276 µM and < 0.01 µM | 0.000527 µM and 0.00336 µM and < 0.01 µM | 0.0214 µM and < 0.0111 µM | < 0.01 µM | 0.02 µM and 0.0176 µM |  | 0.0409 µM and 0.0193 µM |
| O=C1c2ccccc2C(=O)c2cc3c(cc21)CS(=O)C3 |  | > 100 µM |  | > 100 µM |  | > 100 µM |  | > 100 µM |  | > 100 µM |  | > 100 µM |  | > 100 µM |  | > 100 µM |  | > 100 µM |  |  |
| Cn1c(CBr)nc2c1C(=O)c1nc(CBr)[nH]c(=O)c1C2=O |  | > 100 µM |  |  |  | > 100 µM |  | > 100 µM |  | > 100 µM |  | > 100 µM |  | > 100 µM |  | > 100 µM |  | > 100 µM |  |  |
| COC1C2C[C@@H](O)CCC2C(C(=O)OCCl)C[C@H]1O (stereo partly drawn) |  | > 100 µM |  | > 100 µM |  | > 100 µM |  |  |  |  |  | > 100 µM |  | > 100 µM |  | > 100 µM |  | > 100 µM |  |  |
| COC(=O)CCSC(=O)Nc1ccc(N=Nc2ccccc2)cc1 |  | > 100 µM |  | > 100 µM |  | > 100 µM |  | 92 µM |  | > 100 µM |  | > 100 µM |  | > 100 µM |  |  |  | > 100 µM |  |  |
| COc1cc([N+](=O)[O-])c(OC)cc1-c1nc2sc(C)c(C)n2c1/C(N)=N/C(=N)N |  |  | 2.33 µM | > 100 µM | > 100 µM | > 100 µM | > 100 µM | > 100 µM | > 100 µM | > 100 µM | 6.01 µM | > 100 µM |  |  | > 100 µM | > 100 µM | > 100 µM | > 100 µM | > 100 µM | > 100 µM |
| CN=c1ss/c(=N\C(=S)N(C)C)n1C |  | > 100 µM |  | > 100 µM |  | > 100 µM |  | > 100 µM |  | > 100 µM |  | > 100 µM |  | > 100 µM |  |  |  | > 100 µM |  |  |
| NC1NC=NC2C1N=CN2C1OC(CO)C2[O][Sn][O]C21 (stereo not drawn) | > 100 µM | > 100 µM | > 100 µM | > 100 µM | > 100 µM | > 100 µM | > 100 µM | > 100 µM | > 100 µM | > 100 µM | > 100 µM | > 100 µM | > 100 µM | > 100 µM | > 100 µM | > 100 µM | > 100 µM | > 100 µM |  |  |
| CCOC(=O)C(C)(NC(=O)c1ccc(NCc2ccc3nc(NC(=O)c4ccccc4)nc(NC(=O)c4ccccc4)c3c2)cc1)C(=O)OCC |  | 9.88 µM |  |  |  | 44.3 µM |  | 27.5 µM |  | 39.1 µM |  |  |  | 28.7 µM |  | 32.1 µM |  | 34.9 µM |  |  |
| O=[N+]([O-])c1ccc(C2=Nc3ccccc3S(=O)C(c3ccccc3)C2)cc1 (stereo not drawn) |  | 45 µM |  | 68 µM |  | 42 µM |  | 36.3 µM |  | 42 µM |  | 36.9 µM |  | > 100 µM |  | 35.3 µM |  | 32.2 µM |  |  |
| COc1cc(C2c3cc4c(cc3[C@@H](NCCN(C)C)C3COC(=O)[C@H]23)OCO4)cc(OC)c1O (stereo partly drawn) |  | 0.207 µM and 0.974 µM |  | 5.18 µM and 9.62 µM |  | 1.61 µM and 2.31 µM | 0.103 µM and 0.228 µM | 0.673 µM and 1.41 µM | 1.36 µM | 5 µM | 0.0136 µM and 0.0277 µM | 0.417 µM and 0.352 µM | 0.137 µM and 0.316 µM | 1.49 µM and 4.29 µM |  | 1.76 µM and 2.2 µM |  | 0.633 µM and 1.32 µM |  |  |
| COc1cccc(/C=C/C(=O)c2ccc3cc(OC)ccc3c2)c1 | 7.95 µM | 16.8 µM | 14 µM | 47.3 µM | 13.6 µM | 41.3 µM | 11.6 µM | 21 µM |  |  |  |  | 15.5 µM | > 50 µM |  |  | 9.25 µM | 19 µM | 8.54 µM | 17.5 µM |
